PubChem BioAssay AID2060497 (Molecular Pharmacology Branch, DTP, NCI, 2025)

Tested on: 317291-083-R-J1-PDC complex spheroids, viability
Assay: Anticancer human tumor 317291-083-R-J1-PDC patient-derived soft tissue sarcoma cell line growth inhibition [GQUAD]
Details: for IC50: curve of first compound; for viability, T/C: stronger effect = lower value
Outline: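 Multi-cell-type spheroids of tumor cells with HUVEC and mesenchymal stem cells, treated with drug combinations. Concentrations descend in half-log steps from near clinical Cmax, or from 10 microM where Cmax is unknown; viability read-out.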

[1] = second compound 0.0316 µM, first compound 0.0316 µM
[2] = second compound 0.0316 µM, first compound 0.1 µM
[3] = second compound 0.0316 µM, first compound 0.316 µM
[4] = second compound 0.0316 µM, first compound 1 µM
[5] = second compound 0.0316 µM, first compound 3.16 µM
[6] = second compound 0.0316 µM, first compound 10 µM
[7] = second compound 0.1 µM, first compound 0.0316 µM
[8] = second compound 0.1 µM, first compound 0.1 µM
[9] = second compound 0.1 µM, first compound 0.316 µM
[10] = second compound 0.1 µM, first compound 1 µM
[11] = second compound 0.1 µM, first compound 3.16 µM
[12] = second compound 0.1 µM, first compound 10 µM
[13] = second compound 0.316 µM, first compound 0.0316 µM
[14] = second compound 0.316 µM, first compound 0.1 µM
[15] = second compound 0.316 µM, first compound 0.316 µM
[16] = second compound 0.316 µM, first compound 1 µM
[17] = second compound 0.316 µM, first compound 3.16 µM
[18] = second compound 0.316 µM, first compound 10 µM
[19] = second compound 1 µM, first compound 0.0316 µM
[20] = second compound 1 µM, first compound 0.1 µM
[21] = second compound 1 µM, first compound 0.316 µM
[22] = second compound 1 µM, first compound 1 µM
[23] = second compound 1 µM, first compound 3.16 µM
[24] = second compound 1 µM, first compound 10 µM
[25] = second compound 3.16 µM, first compound 0.0316 µM
[26] = second compound 3.16 µM, first compound 0.1 µM
[27] = second compound 3.16 µM, first compound 0.316 µM
[28] = second compound 3.16 µM, first compound 1 µM
[29] = second compound 3.16 µM, first compound 3.16 µM
[30] = second compound 3.16 µM, first compound 10 µM
[31] = second compound 10 µM, first compound 0.0316 µM
[32] = second compound 10 µM, first compound 0.1 µM
[33] = second compound 10 µM, first compound 0.316 µM
[34] = second compound 10 µM, first compound 1 µM
[35] = second compound 10 µM, first compound 3.16 µM
[36] = second compound 10 µM, first compound 10 µM
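Also: spheroids exposed to compounds for one week before readout.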
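For viability, T/C in this document: percent viability relative to DMSO vehicle wells taken as 100%.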

C=CC(=O)N1CCN(c2nc(=O)n(-c3c(C)ccnc3C(C)C)c3nc(-c4c(O)cccc4F)c(F)cc23)C(C)C1 (stereo unspecified) + Cc1cnc(CNC(=O)c2c(=O)c3ccc(N4CCCN(C)CC4)nc3n3c2sc2ccccc23)cn1
IC50 (second compound 0.0316 µM): > 10000 nM | IC50 (second compound 0.1 µM): 8780 nM | IC50 (second compound 0.316 µM): 4430 nM | IC50 (second compound 1 µM): 153 nM | IC50 (second compound 3.16 µM): < 31.6 nM | IC50 (second compound 10 µM): < 31.6 nM | viability, T/C [1]: 101% | viability, T/C [2]: 84.2% | viability, T/C [3]: 101% | viability, T/C [4]: 92.8% | viability, T/C [5]: 86.2% | viability, T/C [6]: 65% | viability, T/C [7]: 79.1% | viability, T/C [8]: 88.6% | viability, T/C [9]: 91% | viability, T/C [10]: 95.8% | viability, T/C [11]: 70.1% | viability, T/C [12]: 47.5% | viability, T/C [13]: 65.7% | viability, T/C [14]: 68.7% | viability, T/C [15]: 54.4% | viability, T/C [16]: 63.7% | viability, T/C [17]: 46.9% | viability, T/C [18]: 47.3% | viability, T/C [19]: 59.1% | viability, T/C [20]: 61.9% | viability, T/C [21]: 31.9% | viability, T/C [22]: 27.4% | viability, T/C [23]: 30.9% | viability, T/C [24]: 14.8% | viability, T/C [25]: 21.3% | viability, T/C [26]: 21.2% | viability, T/C [27]: 41.6% | viability, T/C [28]: 12.3% | viability, T/C [29]: 13.8% | viability, T/C [30]: 14.6% | viability, T/C [31]: 22% | viability, T/C [32]: 63.3% | viability, T/C [33]: 22.2% | viability, T/C [34]: 13.2% | viability, T/C [35]: 35.4% | viability, T/C [36]: 6.85%

CC(C)n1c(=O)n(C)c2cnc3cc(F)c(-c4ccc(OCCCN5CCCCC5)nc4)cc3c21 + Cc1cnc(CNC(=O)c2c(=O)c3ccc(N4CCCN(C)CC4)nc3n3c2sc2ccccc23)cn1
IC50 (second compound 0.0316 µM): 858 nM | IC50 (second compound 0.1 µM): < 31.6 nM | IC50 (second compound 0.316 µM): < 31.6 nM | IC50 (second compound 1 µM): < 31.6 nM | IC50 (second compound 3.16 µM): < 31.6 nM | IC50 (second compound 10 µM): < 31.6 nM | viability, T/C [1]: 57.3% | viability, T/C [2]: 51.3% | viability, T/C [3]: 45.1% | viability, T/C [4]: 29.2% | viability, T/C [5]: 73.3% | viability, T/C [6]: 44.5% | viability, T/C [7]: 37.1% | viability, T/C [8]: 37% | viability, T/C [9]: 24.6% | viability, T/C [10]: 25.9% | viability, T/C [11]: 23.9% | viability, T/C [12]: 25.3% | viability, T/C [13]: 21.2% | viability, T/C [14]: 25.9% | viability, T/C [15]: 25.4% | viability, T/C [16]: 22.1% | viability, T/C [17]: 33% | viability, T/C [18]: 17.5% | viability, T/C [19]: 18.2% | viability, T/C [20]: 22.1% | viability, T/C [21]: 23.5% | viability, T/C [22]: 19.4% | viability, T/C [23]: 21.9% | viability, T/C [24]: 21.5% | viability, T/C [25]: 11.4% | viability, T/C [26]: 13.9% | viability, T/C [27]: 29.8% | viability, T/C [28]: 10.7% | viability, T/C [29]: 13.1% | viability, T/C [30]: 11.4% | viability, T/C [31]: 26.2% | viability, T/C [32]: 16.6% | viability, T/C [33]: 10.7% | viability, T/C [34]: 21.9% | viability, T/C [35]: 25.5% | viability, T/C [36]: 23.4%

CCc1c2c(nc3ccc(O)cc13)-c1cc3c(c(=O)n1C2)COC(=O)[C@]3(O)CC + Cc1cnc(CNC(=O)c2c(=O)c3ccc(N4CCCN(C)CC4)nc3n3c2sc2ccccc23)cn1
IC50 (second compound 0.0316 µM): < 0.999 nM | IC50 (second compound 0.1 µM): < 0.999 nM | IC50 (second compound 0.316 µM): < 0.999 nM | IC50 (second compound 1 µM): < 0.999 nM | IC50 (second compound 3.16 µM): < 0.999 nM | IC50 (second compound 10 µM): < 0.999 nM | viability, T/C (second compound 0.0316 µM, first compound 0.000999 µM): 39.3% | viability, T/C (second compound 0.0316 µM, first compound 0.00316 µM): 18% | viability, T/C (second compound 0.0316 µM, first compound 0.00999 µM): 10.7% | viability, T/C [1]: 7.46% | viability, T/C (second compound 0.0316 µM, first compound 0.0999 µM): 9.54% | viability, T/C [3]: 5.6% | viability, T/C (second compound 0.1 µM, first compound 0.000999 µM): 33.9% | viability, T/C (second compound 0.1 µM, first compound 0.00316 µM): 16% | viability, T/C (second compound 0.1 µM, first compound 0.00999 µM): 11.3% | viability, T/C [7]: 13.6% | viability, T/C (second compound 0.1 µM, first compound 0.0999 µM): 5.29% | viability, T/C [9]: 3.08% | viability, T/C (second compound 0.316 µM, first compound 0.000999 µM): 20.6% | viability, T/C (second compound 0.316 µM, first compound 0.00316 µM): 21.5% | viability, T/C (second compound 0.316 µM, first compound 0.00999 µM): 15.5% | viability, T/C [13]: 9.82% | viability, T/C (second compound 0.316 µM, first compound 0.0999 µM): 7.3% | viability, T/C [15]: 2.31% | viability, T/C (second compound 1 µM, first compound 0.000999 µM): 21.9% | viability, T/C (second compound 1 µM, first compound 0.00316 µM): 25.9% | viability, T/C (second compound 1 µM, first compound 0.00999 µM): 11.1% | viability, T/C [19]: 9.26% | viability, T/C (second compound 1 µM, first compound 0.0999 µM): 12.2% | viability, T/C [21]: 1.09% | viability, T/C (second compound 3.16 µM, first compound 0.000999 µM): 26.1% | viability, T/C (second compound 3.16 µM, first compound 0.00316 µM): 14.9% | viability, T/C (second compound 3.16 µM, first compound 0.00999 µM): 9.17% | viability, T/C [25]: 2.26% | viability, T/C (second compound 3.16 µM, first compound 0.0999 µM): 2.54% | viability, T/C [27]: 0.17% | viability, T/C (second compound 10 µM, first compound 0.000999 µM): 15.2% | viability, T/C (second compound 10 µM, first compound 0.00316 µM): 7.77% | viability, T/C (second compound 10 µM, first compound 0.00999 µM): 8.64% | viability, T/C [31]: 8.52% | viability, T/C (second compound 10 µM, first compound 0.0999 µM): 6.98% | viability, T/C [33]: 0.18%
